Assay results published in patent publication US11465983B2, “USP7 inhibitors for treating multiple myeloma” (Dana-Farber Cancer Institute, Inc., priority 2017, dated 2022).

Target: USP7 (Homo sapiens, UniProt Q93009)
Test: Ub-AMC assay (USP7 assay)
Type: biochemical
Design: fused on or other part: His tag from pET28aLIC; removed by thrombin for the catalytic domain, no removal step given for the full length
Conditions: for IC50: USP7 assay
Method: USP7 and mutants were tested for their activity in Ubiquitin-AMC assay in presence or absence of inhibitors. […] For the same assay USP7 full length WT and Q351 mutant were used at 50 nM. […] The reaction was incubated 30 min at room temperature prior to the addition of 2 uM Ubiquitin-AMC (Boston Biochem) substrate. […] The calculated initial rate values were plotted against inhibitor concentrations to determine IC50s. All the experimental data were plotted using Prism GraphPad. FIG. 2A illustrates the structure guided optimization for the inhibition of USP7.
ND refers to not disclosed.

Chain of USP7 (Q93009 208-560 limits assumed): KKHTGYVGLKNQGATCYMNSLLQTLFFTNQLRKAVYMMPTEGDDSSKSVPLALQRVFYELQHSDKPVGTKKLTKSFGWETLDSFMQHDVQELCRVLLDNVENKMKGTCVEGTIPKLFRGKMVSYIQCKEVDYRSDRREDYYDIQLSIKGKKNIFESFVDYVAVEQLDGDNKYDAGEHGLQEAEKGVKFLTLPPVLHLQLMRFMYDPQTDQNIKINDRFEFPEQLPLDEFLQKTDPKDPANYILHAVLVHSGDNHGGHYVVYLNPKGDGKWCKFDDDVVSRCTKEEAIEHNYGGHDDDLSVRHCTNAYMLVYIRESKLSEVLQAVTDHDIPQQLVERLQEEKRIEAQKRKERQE

| Compound | IC50 | fold less active than its enantiomer compound 10 (USP7 inhibition, FIG. 2A) |
| --- | --- | --- |
| O=C(CCn1cccc1)N1CCC(O)(Cn2cnc3cc(Cl)ccc3c2=O)CC1 [Compound 51] | > 10 µM | – |
| O=C(NCCCC(=O)N1CCC(O)(Cn2cnc3cc(Cl)ccc3c2=O)CC1)c1ccc2c(Cl)c3c(nc2c1)CCCC3 [Compound 84] | 1 to 10 µM | – |
| O=C([C@H]1C[C@@H]1c1ccccc1)N1CCC(O)(Cn2cnc3cc(Cl)ccc3c2=O)CC1 [Compound 75] | > 10 µM | – |
| CN1CCN(CCC(=O)Nc2ccc3c(=O)n(CC4(O)CCN(C(=O)CC(c5ccccc5)c5ccccc5)CC4)cnc3c2)CC1 [Compound 48] | < 0.2 µM | – |
| C[C@H](CC(=O)N1CCC(O)(Cn2cnc3c(N)cccc3c2=O)CC1)c1ccccc1 [Compound 103] | 1 to 10 µM | – |
| O=C(CC(c1ccccc1)c1ccccc1)N1CCC(O)(Cn2cnc3cc(Cl)ccc3c2=O)CC1 [Compound 82] | 1 to 10 µM | – |
| C[C@@H](c1ccccc1)N(C)C(=O)N1CCC(O)(Cn2cnc3cc(Cl)ccc3c2=O)CC1 [Compound 42] | > 10 µM | – |
| COC(Cc1ccccc1)C(=O)N1CCC(O)(Cn2cnc3cc(Cl)ccc3c2=O)CC1 (stereo not drawn) [Compound 92] | 1 to 10 µM | – |
| O=C(CCc1ccc(F)cc1)N1CCC(O)(Cn2cnc3cc(Cl)ccc3c2=O)C1 (stereo not drawn) [Compound 66] | > 10 µM | – |
| O=C(COc1ccccc1)N1CCC(O)(Cn2cnc3cc(Cl)ccc3c2=O)CC1 [Compound 31] | > 10 µM | – |
| CC(C)(C)C(=O)N1CCC(O)(Cn2cnc3cc(Cl)ccc3c2=O)CC1 [Compound 76] | > 10 µM | – |
| O=C(C[C@H](O)c1ccccc1)N1CCC(O)(Cn2cnc3cc(Cl)ccc3c2=O)CC1 [Compound 33] | > 10 µM | – |
| [N-]=[N+]=NCCOCCOCC(=O)Nc1ccc2c(=O)n(CC3(O)CCN(C(=O)CCc4ccccc4)CC3)cnc2c1 [Compound 63] | > 10 µM | – |
| O=c1c2ccc(Cl)cc2ncn1CC1(O)CCN(c2cccnc2)CC1 [Compound 77] | > 10 µM | – |
| C=CC(=O)NCCCC(=O)N1CCC(O)(Cn2cnc3cc(Cl)ccc3c2=O)CC1 [Compound 46] | > 10 µM | – |
| O=C(NCCCCC(=O)N1CCC(O)(Cn2cnc3cc(Cl)ccc3c2=O)CC1)c1ccc2c(c1)CCCN2C(=O)CCl [Compound 19] | 1 to 10 µM | – |
| O=C(CCc1ccc2c(Cl)c3c(nc2c1)CCCC3)NCCC(=O)N1CCC(O)(Cn2cnc3cc(Cl)ccc3c2=O)CC1 [Compound 97] | > 10 µM | – |
| C=CC(=O)N[C@@H](Cc1ccccc1)C(=O)N1CCC(O)(Cn2cnc3cc(Cl)ccc3c2=O)CC1 [Compound 59] | > 10 µM | – |
| O=C(CF)N[C@@H](Cc1ccccc1)C(=O)N1CCC(O)(Cn2cnc3cc(Cl)ccc3c2=O)CC1 [Compound 62] | > 10 µM | – |
| C[C@H](Cc1ccccc1)C(=O)N1CCC(O)(Cn2cnc3cc(Cl)ccc3c2=O)CC1 [Compound 72] | 0.2 to 1 µM | – |
| 7-Chloro-3-((4-hydroxy-1-(3-phenylpropyl)piperidin-4-yl)methyl)quinazolin-4(3H)-one [Compound 4] | > 10 µM | – |
| O=C([C@@H]1C[C@H]1c1ccccc1)N1CCC(O)(Cn2cnc3cc(Cl)ccc3c2=O)CC1 [Compound 74] | > 10 µM | – |
| COc1ccc(CCC(=O)N2CCC(O)(Cn3cnc4cc(Cl)ccc4c3=O)CC2)cc1 [Compound 53] | > 10 µM | – |

| Compound | IC50 | fold less active than its enantiomer compound 10 (USP7 inhibition, FIG. 2A) |
| --- | --- | --- |
| CC(CC(=O)N1CCC(O)(Cn2cnc3cc(NC(=O)CCN4CCN(C)CC4)ccc3c2=O)CC1)c1ccccc1 (stereo not drawn) [Compound 12] | 0.2 to 1 µM | – |
| CC(=O)Nc1ccc2c(=O)n(CC3(O)CCN(C(=O)C[C@@H](C)c4ccccc4)CC3)cnc2c1 [Compound 102] | 0.2 to 1 µM | – |
| CC(C)(C)C(=O)Nc1ccc2c(=O)n(CC3(O)CCN(C(=O)CCc4ccccc4)CC3)cnc2c1 [Compound 105] | > 10 µM | – |
| O=C(C#Cc1ccccc1)N1CCC(O)(Cn2cnc3cc(Cl)ccc3c2=O)CC1 [Compound 67] | > 10 µM | – |
| O=C(CCc1cccc(Br)c1)N1CCC(O)(Cn2cnc3cc(Cl)ccc3c2=O)CC1 [Compound 24] | > 10 µM | – |
| C[C@H](CC(=O)N1CCC(O)(Cn2cnc3cc(Cl)ccc3c2=O)CC1)c1ccccc1 [Compound 1, (R)-7-Chloro-3-((4-hydroxy-1-(3-phenylbutanoyl)piperidin-4-yl)methyl)quinazolin-4(3H)-one] | < 0.2 µM | – |
| CC(=O)Nc1cccc2c(=O)n(CC3(O)CCN(C(=O)C[C@@H](C)c4ccccc4)CC3)cnc12 [Compound 50] | 1 to 10 µM | – |
| O=C(CCc1ccc([N+](=O)[O-])cc1)N1CCC(O)(Cn2cnc3cc(Cl)ccc3c2=O)CC1 [Compound 61] | > 10 µM | – |
| CC(=O)Nc1ccc2c(=O)n(CC3(O)CCN(C(=O)CCc4ccccc4)CC3)cnc2c1 [Compound 64] | 1 to 10 µM | – |
| O=C(NCC(=O)N1CCC(O)(Cn2cnc3cc(Cl)ccc3c2=O)CC1)c1ccc2c(Cl)c3c(nc2c1)CCCC3 [Compound 96] | > 10 µM | – |
| O=C(CC1c2ccccc2-c2ccccc21)N1CCC(O)(Cn2cnc3cc(Cl)ccc3c2=O)CC1 [Compound 88] | > 10 µM | – |
| O=C(CCl)NCCC(=O)N1CCC(O)(Cn2cnc3cc(Cl)ccc3c2=O)CC1 [Compound 44] | > 10 µM | – |
| CCN(Cc1ccccc1)C(=O)N1CCC(O)(Cn2cnc3cc(Cl)ccc3c2=O)CC1 [Compound 39] | 0.2 to 1 µM | – |
| O=C(C1CCCN1c1ccccc1)N1CCC(O)(Cn2cnc3cc(Br)ccc3c2=O)CC1 (stereo not drawn) [Compound 65] | > 10 µM | – |
| O=C(N1CCC(O)(Cn2cnc3cc(Cl)ccc3c2=O)CC1)N(Cc1ccccc1)Cc1ccccc1 [Compound 40] | > 10 µM | – |
| O=C(CCc1ccncc1)N1CCC(O)(Cn2cnc3cc(Cl)ccc3c2=O)CC1 [Compound 52] | > 10 µM | – |
| Cc1cccc(CCC(=O)N2CCC(O)(Cn3cnc4cc(Cl)ccc4c3=O)CC2)c1 [Compound 89] | > 10 µM | – |
| O=c1c2ccc(Cl)cc2ncn1CC1(O)CCN(c2ccccc2)CC1 [Compound 70] | > 10 µM | – |
| Cn1cc(C(=O)CCl)cc1C(=O)NCCCCC(=O)N1CCC(O)(Cn2cnc3cc(Cl)ccc3c2=O)CC1 [Compound 18] | 1 to 10 µM | – |
| C[C@H](CC(=O)N1CCC(O)(Cn2cnc3cc(N)ccc3c2=O)CC1)c1ccccc1 [Compound 101] | 0.2 to 1 µM | – |
| O=C(/C=C/c1ccccc1)N1CCC(O)(Cn2cnc3cc(Cl)ccc3c2=O)CC1 [Compound 26] | > 10 µM | – |
| O=C(CCC1CCCCC1)N1CCC(O)(Cn2cnc3cc(Cl)ccc3c2=O)CC1 [Compound 55] | > 10 µM | – |
| COc1ccccc1CCC(=O)N1CCC(O)(Cn2cnc3cc(Cl)ccc3c2=O)CC1 [Compound 87] | > 10 µM | – |

| Compound | IC50 | fold less active than its enantiomer compound 10 (USP7 inhibition, FIG. 2A) |
| --- | --- | --- |
| N[C@@H](Cc1ccccc1)C(=O)N1CCC(O)(Cn2cnc3cc(Cl)ccc3c2=O)CC1 [Compound 22] | > 10 µM | – |
| O=C(CCc1ccccc1)N1CCC(O)(Cn2cnc3ccc([N+](=O)[O-])cc3c2=O)CC1 [Compound 68] | > 10 µM | – |
| O=C(N[C@@H](Cc1ccccc1)C(=O)N1CCC(O)(Cn2cnc3cc(Cl)ccc3c2=O)CC1)c1ccc2c(Cl)c3c(nc2c1)CCCC3 [Compound 99] | 1 to 10 µM | – |
| O=C(NCCCC(=O)N1CCC(Cn2cnc3cc(Cl)ccc3c2=O)CC1)c1ccc2c(Cl)c3c(nc2c1)CCCC3 [Compound 100] | > 10 µM | – |
| O=C(NCCCCC(=O)N1CCC(O)(Cn2cnc3cc(Cl)ccc3c2=O)CC1)c1ccc2c(Cl)c3c(nc2c1)CCCC3 [Compound 98] | 0.2 to 1 µM | – |
| O=C(CCc1ccc(Br)cc1)N1CCC(O)(Cn2cnc3cc(Cl)ccc3c2=O)CC1 [Compound 23] | > 10 µM | – |
| O=c1c2ccc(Cl)cc2ncn1CC1(O)CCN(C(=S)NCc2ccccc2)CC1 [Compound 37] | > 10 µM | – |
| C[C@H](CC(=O)N1CCC(O)(Cn2cnc3cc(NC(=O)CCN4CCOCC4)ccc3c2=O)CC1)c1ccccc1 [Compound 14, (R)—N-(3-((4-hydroxy-1-(3-phenylbutanoyl)piperidin-4-yl)methyl)-4-oxo-3,4-dihydroquinazolin-7-yl)-3-morpholinopropanamide] | < 0.2 µM | – |
| CC(=O)Nc1ccc2c(=O)n(CC3(O)CCN(C(=O)CC(C)c4ccccc4)CC3)cnc2c1 (stereo not drawn) [Compound 86] | 0.2 to 1 µM | – |
| CC(C)C(CC(=O)N1CCC(O)(Cn2cnc3cc(NC(=O)CCN4CCN(C)CC4)ccc3c2=O)CC1)c1ccccc1 (stereo not drawn) [Compound 47] | < 0.2 µM | – |
| O=C(CCc1ccc(F)cc1)N1CCC(O)(Cn2cnc3cc(Cl)ccc3c2=O)CC1 [Compound 54] | 0.2 to 1 µM | – |
| O=C(NCc1ccccc1)N1CCC(O)(Cn2cnc3cc(Cl)ccc3c2=O)CC1 [Compound 36] | > 10 µM | – |
| C[C@@H](CC(=O)N1CCC(O)(Cn2cnc3cc(NC(=O)CCN4CCN(C)CC4)ccc3c2=O)CC1)c1ccccc1 [Compound 11, (S)—N-(3-((4-Hydroxy-1-(3-phenylbutanoyl)piperidin-4-yl)methyl)-4-oxo-3,4-dihydroquinazolin-7-yl)-3-(4-methylpiperazin-1-yl)propanamide] | < 0.2 µM | 80 fold |
| C[C@H](c1ccccc1)N(C)C(=O)N1CCC(O)(Cn2cnc3cc(Cl)ccc3c2=O)CC1 [Compound 41] | > 10 µM | – |
| CC(CC(=O)N1CCC(O)(Cn2cnc3cc(NC(=O)CCn4ccnc4)ccc3c2=O)CC1)c1ccccc1 (stereo not drawn) [Compound 16] | < 0.2 µM | – |
| O=C(NCCCn1cnc2cc(Cl)ccc2c1=O)c1ccc2c(Cl)c3c(nc2c1)CCCC3 [Compound 85] | > 10 µM | – |
| O=C(C(Cc1ccccc1)c1ccccc1)N1CCC(O)(Cn2cnc3cc(Cl)ccc3c2=O)CC1 (stereo not drawn) [Compound 95] | > 10 µM | – |
| CNC(=O)c1ccc2c(Cl)c3c(nc2c1)CCCC3 [Compound 90] | > 10 µM | – |
| O=C(CCc1cccnc1)N1CCC(O)(Cn2cnc3cc(Cl)ccc3c2=O)CC1 [Compound 35] | > 10 µM | – |
| CCC(Cc1ccccc1)C(=O)N1CCC(O)(Cn2cnc3cc(Cl)ccc3c2=O)CC1 (stereo not drawn) [Compound 94] | 1 to 10 µM | – |
| C[C@@H](Cc1ccccc1)C(=O)N1CCC(O)(Cn2cnc3cc(Cl)ccc3c2=O)CC1 [Compound 73] | > 10 µM | – |
| O=c1c2ccc(Cl)cc2ncn1CC1(O)CCN(c2cc([N+](=O)[O-])ccn2)CC1 [Compound 83] | > 10 µM | – |
